Test results: patent US9211326B2, “Method of enhancing the proliferative phase of a primary T cell response” (Tampa Bay Research Institute, priority 2013, dated 2015)
“Also recorded” adds a separate entry of the source.

Tests used:
Bcl-2 [1] = conditions: cited from earlier work
IFNg = system: IFNg; parameters: species or system Balb/c mice; conditions: mouse, in vivo
IL-2 = system: IL-2; parameters: species or system Balb/c mice; conditions: mouse, in vivo
Vβ8+ T cells [2] = system: Vβ8+ T cells; parameters: species or system Balb/c mice; conditions: mouse, in vivo
Bax mRNA = system: Bax mRNA; parameters: species or system Balb/c mice; conditions: mouse, in vivo
IL-12p70 = system: IL-12p70; parameters: species or system Balb/c mice; conditions: mouse, in vivo
Vβ8+ T cells [3] = system: Vβ8+ T cells; parameters: species or system Balb/c mice; conditions: mouse, in vivo; remark: listed apart in the source
Bcl-2 mRNA = assay: qPCR gene expression in lymph node cells: Bcl-2; parameters: species or system Balb/c mice; conditions: mouse, in vivo
Bcl-2 [4] = system: Bcl-2; parameters: species or system Balb/c mice; conditions: mouse, in vivo
Bcl-xL mRNA = assay: qPCR gene expression in lymph node cells: Bcl-xL; parameters: species or system Balb/c mice; conditions: mouse, in vivo

| Compound | ROS induced decline in Bcl-2 (Bcl-2 [1]) | serum IFNg level (IFNg) | serum IL-2 level (IL-2) | percentage of Annexin V positive Vβ8+ T cells (Vβ8+ T cells [2]) | Bax mRNA level in lymph nodes (Bax mRNA) | serum IL-12p70 level (IL-12p70) | numbers of CD3+/CD8+/Vβ8+ T cells (Vβ8+ T cells [3]) | Bcl-2 mRNA level in lymph nodes (Bcl-2 mRNA) | intracellular Bcl-2 protein per Vβ8+ T cell (Bcl-2 [4]) | Bcl-xL mRNA level in lymph nodes (Bcl-xL mRNA) |
| --- | --- | --- | --- | --- | --- | --- | --- | --- | --- | --- |
| O=C(O)c1ccc(/C2=C3\C=CC(=N3)/C(c3ccc(C(=O)O)cc3)=c3/cc/c4[n]3[Mn]([Cl])[n]3c2ccc3/C(c2ccc(C(=O)O)cc2)=C2/C=CC(=N2)\C=4c2ccc(C(=O)O)cc2)cc1 [MnTBAP] | reversed |  |  |  |  |  |  |  |  |  |
| Staphylococcal enterotoxin B [SEB] |  | significant increase | significant increase | significantly enhanced | did not appear to be significantly affected | significant increase | remained elevated | suppressed; also recorded: reduction | equally reduced amounts | suppressed; also recorded: reduced |
